What all share (assay): relative viability (nuclei count vs DMSO), 5 days (fraction); higher = more cells survive
Compound in experiment [1]: CN(C)CC1=CC(=CC=C1)N=C(C2=CC=CC=C2)C3=C(NC4=C3C=CC(=C4)C(=O)N(C)C)O + COc1cc2c(Oc3ccc(NC(=O)C4(C(=O)Nc5ccc(F)cc5)CC4)cc3F)ccnc2cc1OCCCN1CCOCC1 [Foretinib] (partner 0.25 µM)
The essentials: (§1)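 One day after seeding in 1536-well plates, lung cancer cell lines were dosed by pin tool. Dosing was either single-drug or a fixed anchor-drug dose plus five library-drug doses (not always all listed) in √10 steps. After 5 days, nuclei were stained in one fix-and-stain step and counted on 4× images, and relative viability is the nuclei count of treated wells over that of vehicle wells, given as the median of duplicate plates.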

Compound in experiment [2]: CN(C)CC1=CC(=CC=C1)N=C(C2=CC=CC=C2)C3=C(NC4=C3C=CC(=C4)C(=O)N(C)C)O + CS(=O)(=O)N1CCN(Cc2cc3nc(-c4cccc5[nH]ncc45)nc(N4CCOCC4)c3s2)CC1 [Pictilisib] (partner 1 µM)
The essentials: as §1

Compound in experiment [3]: CN(C)CC1=CC(=CC=C1)N=C(C2=CC=CC=C2)C3=C(NC4=C3C=CC(=C4)C(=O)N(C)C)O + NC(=O)Nc1cc(-c2cccc(F)c2)sc1C(=O)N[C@H]1CCCNC1 [AZD7762] (partner 0.2 µM)
In outline:
as §1

Compound in experiment [4]: CN(C)CC1=CC(=CC=C1)N=C(C2=CC=CC=C2)C3=C(NC4=C3C=CC(=C4)C(=O)N(C)C)O + O=C(CCCCCCC(=O)Nc1ccccc1)NO [Vorinostat] (partner 1 µM)
The essentials:
as §1

This is an account of results in the supplement of paper PMC10307832.

As to NCI-H2126, the relative viability in experiment [1] (first compound 0.08 µM) is 1.1; in experiment [1] (first compound 0.253 µM), 1.13; in experiment [1] (first compound 0.8 µM), 1.17; in experiment [1] (first compound 2.53 µM), 1.16; in experiment [1] (first compound 8 µM) it was 1.02; in experiment [2] (first compound 0.08 µM) it was 0.451. In addition, the relative viability in experiment [2] (first compound 0.253 µM) stood at 0.518; in experiment [2] (first compound 0.8 µM), 0.451; in experiment [2] (first compound 2.53 µM), 0.541; in experiment [2] (first compound 8 µM), 0.507; in experiment [3] (first compound 0.08 µM), 0.974; in experiment [3] (first compound 0.253 µM), 0.96. In addition, the relative viability in experiment [3] (first compound 0.8 µM) was determined as 0.931; in experiment [3] (first compound 2.53 µM), 0.943; in experiment [3] (first compound 8 µM), 0.976; in experiment [4] (first compound 0.08 µM), 0.822; in experiment [4] (first compound 0.253 µM) it was 0.767; in experiment [4] (first compound 0.8 µM) it was 0.475. Further, the relative viability in experiment [4] (first compound 2.53 µM) is 0.8; in experiment [4] (first compound 8 µM) it was 0.554.

For the cell line NCI-H1395, the relative viability came out at 0.97 in experiment [1] (first compound 0.08 µM); 1.01 in experiment [1] (first compound 0.253 µM); 1.04 in experiment [1] (first compound 0.8 µM); 0.854 in experiment [1] (first compound 2.53 µM); 0.92 in experiment [1] (first compound 8 µM); 0.649 in experiment [2] (first compound 0.08 µM). Also, the relative viability in experiment [2] (first compound 0.253 µM) was 0.619; in experiment [2] (first compound 0.8 µM) it was 0.651; in experiment [2] (first compound 2.53 µM) it was 0.489; in experiment [2] (first compound 8 µM), 0.579; in experiment [3] (first compound 0.08 µM) it was 0.406; in experiment [3] (first compound 0.253 µM), 0.343. For the same cell line, the relative viability stood at 0.446 in experiment [3] (first compound 0.8 µM); 0.39 in experiment [3] (first compound 2.53 µM); 0.42 in experiment [3] (first compound 8 µM); 0.705 in experiment [4] (first compound 0.08 µM); 0.845 in experiment [4] (first compound 0.253 µM); 0.886 in experiment [4] (first compound 0.8 µM). Further, the relative viability in experiment [4] (first compound 2.53 µM) came to 0.589; in experiment [4] (first compound 8 µM), 0.701.

For NCI-H1648, the relative viability in experiment [3] (first compound 0.08 µM) was determined as 0.638; in experiment [3] (first compound 0.253 µM), 0.706; in experiment [3] (first compound 2.53 µM), 0.718; in experiment [3] (first compound 8 µM), 0.606; in experiment [4] (first compound 0.08 µM), 0.518; in experiment [4] (first compound 0.253 µM), 0.585. The relative viability in experiment [4] (first compound 2.53 µM) came out at 0.512; in experiment [4] (first compound 8 µM), 0.446.

As to NCI-H596, the relative viability in experiment [1] (first compound 0.08 µM) came out at 0.593; in experiment [1] (first compound 0.253 µM), 0.971; in experiment [1] (first compound 0.8 µM), 0.845; in experiment [1] (first compound 2.53 µM), 0.883; in experiment [1] (first compound 8 µM), 0.807; in experiment [2] (first compound 0.08 µM), 0.383. In addition, the relative viability in experiment [2] (first compound 0.253 µM) stood at 0.432; in experiment [2] (first compound 0.8 µM), 0.384; in experiment [2] (first compound 2.53 µM) it was 0.374; in experiment [2] (first compound 8 µM) it was 0.429; in experiment [3] (first compound 0.08 µM), 1.22; in experiment [3] (first compound 0.253 µM), 1.29. The relative viability in experiment [3] (first compound 0.8 µM) was 0.979; in experiment [3] (first compound 2.53 µM), 1.06; in experiment [3] (first compound 8 µM), 0.987; in experiment [4] (first compound 0.08 µM) it was 0.575; in experiment [4] (first compound 0.253 µM), 0.72; in experiment [4] (first compound 0.8 µM), 0.585. Moreover, the relative viability was determined as 0.554 in experiment [4] (first compound 2.53 µM) and 0.862 in experiment [4] (first compound 8 µM).

Regarding A549, the relative viability in experiment [1] (first compound 0.08 µM) was 0.988; in experiment [1] (first compound 0.253 µM), 0.927; in experiment [1] (first compound 0.8 µM), 0.948; in experiment [1] (first compound 2.53 µM), 0.899; in experiment [1] (first compound 8 µM), 1.02; in experiment [2] (first compound 0.08 µM), 0.525. Besides, the relative viability in experiment [2] (first compound 0.253 µM) stood at 0.509; in experiment [2] (first compound 0.8 µM), 0.448; in experiment [2] (first compound 2.53 µM), 0.438; in experiment [2] (first compound 8 µM), 0.384.

Regarding LCLC-103H, the relative viability in experiment [1] (first compound 0.08 µM) is 0.746; in experiment [1] (first compound 0.253 µM) it was 0.826; in experiment [1] (first compound 0.8 µM), 0.825; in experiment [1] (first compound 2.53 µM), 0.841; in experiment [1] (first compound 8 µM), 0.508; in experiment [2] (first compound 0.08 µM), 0.595. The relative viability was determined as 0.671 in experiment [2] (first compound 0.253 µM); 0.616 in experiment [2] (first compound 0.8 µM); 0.586 in experiment [2] (first compound 2.53 µM); 0.593 in experiment [2] (first compound 8 µM); 0.686 in experiment [3] (first compound 0.08 µM); 0.838 in experiment [3] (first compound 0.253 µM). The relative viability in experiment [3] (first compound 0.8 µM) came to 0.794; in experiment [3] (first compound 2.53 µM), 0.666; in experiment [3] (first compound 8 µM), 0.645; in experiment [4] (first compound 0.08 µM), 0.815; in experiment [4] (first compound 0.253 µM), 0.801; in experiment [4] (first compound 0.8 µM) it was 0.782. The figures for the relative viability in experiment [4] (first compound 2.53 µM) and in experiment [4] (first compound 8 µM) were 0.793 and 0.57, respectively.

Regarding EMC-BAC-2, the relative viability in experiment [1] (first compound 0.08 µM) turned out to be 1.11; in experiment [1] (first compound 0.253 µM) it was 0.99; in experiment [1] (first compound 0.8 µM) it was 0.963; in experiment [1] (first compound 2.53 µM), 0.944; in experiment [1] (first compound 8 µM), 0.958; in experiment [2] (first compound 0.08 µM), 0.545. In addition, the relative viability in experiment [2] (first compound 0.253 µM) was 0.528; in experiment [2] (first compound 0.8 µM) it was 0.552; in experiment [2] (first compound 2.53 µM), 0.572; in experiment [2] (first compound 8 µM), 0.569; in experiment [3] (first compound 0.08 µM), 1.23; in experiment [3] (first compound 0.253 µM), 1.15. Also, the relative viability came out at 1.27 in experiment [3] (first compound 0.8 µM); 1.06 in experiment [3] (first compound 2.53 µM); 1.16 in experiment [3] (first compound 8 µM); 0.476 in experiment [4] (first compound 0.08 µM); 0.548 in experiment [4] (first compound 0.253 µM); 0.463 in experiment [4] (first compound 0.8 µM). The relative viability in experiment [4] (first compound 2.53 µM) is 0.463; in experiment [4] (first compound 8 µM) it was 0.653.

With EBC-1, the relative viability in experiment [1] (first compound 0.08 µM) came to 0.0943; in experiment [1] (first compound 0.253 µM), 0.112; in experiment [1] (first compound 0.8 µM) it was 0.0994; in experiment [1] (first compound 2.53 µM), 0.103; in experiment [1] (first compound 8 µM) it was 0.107; in experiment [2] (first compound 0.08 µM) it was 0.441. Also, the relative viability is 0.456 in experiment [2] (first compound 0.253 µM), 0.416 in experiment [2] (first compound 0.8 µM), 0.365 in experiment [2] (first compound 2.53 µM) and 0.318 in experiment [2] (first compound 8 µM).

For the cell line NCI-H1915, the relative viability in experiment [1] (first compound 0.08 µM) turned out to be 1.03; in experiment [1] (first compound 0.253 µM), 1.06; in experiment [1] (first compound 0.8 µM), 1.13; in experiment [1] (first compound 2.53 µM), 1.12; in experiment [1] (first compound 8 µM), 1.05; in experiment [2] (first compound 0.08 µM) it was 0.911. The relative viability in experiment [2] (first compound 0.253 µM) is 0.972; in experiment [2] (first compound 0.8 µM), 0.92; in experiment [2] (first compound 2.53 µM), 0.901; in experiment [2] (first compound 8 µM), 0.918; in experiment [3] (first compound 0.08 µM) it was 0.704; in experiment [3] (first compound 0.253 µM) it was 0.729. Besides, the relative viability was 0.756 in experiment [3] (first compound 0.8 µM); 0.699 in experiment [3] (first compound 2.53 µM); 0.578 in experiment [3] (first compound 8 µM); 0.528 in experiment [4] (first compound 0.08 µM); 0.512 in experiment [4] (first compound 0.253 µM); 0.501 in experiment [4] (first compound 0.8 µM). Besides, the relative viability in experiment [4] (first compound 2.53 µM) came out at 0.516; in experiment [4] (first compound 8 µM) it was 0.415.
